Laboratory results: PMC5854716, “Synthesis, molecular docking, ctDNA interaction, DFT calculation and evaluation of antiproliferative and anti-Toxoplasma gondii activities of 2,4-diaminotriazine-thiazole derivatives” (Medicinal Chemistry Research, 2018)
≈ marks a conversion by molar mass, not a printed value.

Key:
[1] = tested on: Toxoplasma gondii BK strain; test: T. gondii tachyzoite intracellular proliferation in VERO host cells ([3H]uracil incorporation); format: cell-based; details: Toxoplasma gondii
Procedure: The epithelial cell line VERO (ATCC-Catalog No. CCL-81^TM), derived from the kidney of the African green monkey, Cercopithecus aethiops and fibroblast cell line L-929 (ATCC-Catalog No. CCL-1^TM), derived from Mus musculus (http://www.atcc.org) were grown in Iscoves’s Modified Dulbecco’s Medium (IMDM) supplemented with 10% (v/v) fetal bovine serum (FBS), plus 2 mM L-glutamine, 100 U/ml penicillin, 100.00 µg/ml streptomycin, 5 × 10^−5 M 2-mercaptoethanol and maintained at 37 °C in a 10% CO2 atmosphere. Subcultures were performed via enzymatic cell dissociation in 0.25% trypsin. After dissociation, the cells were placed in culture medium at 4 °C with 10% FBS to inhibit the action of trypsin. The isolated cells were centrifuged for 10 min at 1000×g at 4 °C, and the cells were grown in new bottles. This procedure was repeated when cells reached a confluence of ~90%. All commercial reactants and solvents were purchased from either Sigma-Aldrich Laborchemikalien GmbH (Dzitko et al. [2014]).
Suspensions of the compounds 4a–l were freshly prepared (5 mg/ml DMSO) before the cells were exposed, and diluted to appropriate concentrations; 0.9, 1.8, 3.9, 7.8, 15.6, 31.2, 62.5, and 125.00 μg/ml with the culture medium. Cells treated with 2.5% DMSO-solvent served as a control in each experiment.
Stock solutions of the Sulfadiazine (100 mg/ml 1 N NaOH; Catalog No. S8626) was freshly prepared before each experiment, and diluted to appropriate concentrations: 5.00, 25.00, 50.00, 125.00, 250.00, 500.00, 1250.00, and 2500.00 μg/ml, respectively in IMDM complete medium. All commercial reactants and solvents were purchased from either Sigma-Aldrich Laborchemikalien GmbH.
Tachyzoites of T. gondii, BK strain, were maintained in female C57BL/6 (H-2^b) and BALB/c (H-2^d) mice (with genetically determined high and low susceptibility, respectively to Toxoplasma infection) via serial intraperitoneal inoculation of 10^5–10^6 parasites per mouse in phosphate-buffered saline (PBS). After 48 to 96 h, parasites were harvested via peritoneal lavage using PBS, pH 7.2, and centrifuged at 200×g for 5 min to remove blood cells and cell debris. The supernatant containing tachyzoites was collected and centrifuged again at 2000×g for 15 min. The final pellet was resuspended in IMDM, quantified in a Burker’s chamber, and used in experimental assays. Inbred mice were kept under standard laboratory conventional conditions. All experimental procedures were conducted according to guidelines of the 9. Local Ethics Commission for Experiments on Animals in Lodz.
VERO, (2 × 10^4 cells/100 µl/well) were grown in complete medium (IMDM) on 96-well plates. After 24 h incubation, a medium was removed and then T. gondii […] tachyzoites, suspended in culture medium supplemented with 0.9–125.00 μg/ml diaminotriazines 4a–l and as a control-sulfadiazine (5.0–2500.0 μg/ml), were added (2 × 10^5 tachyzoites/200 µl/well) to the cell monolayers. After subsequent 48 h incubation 1 µCi/well of [^3H] uracil (Moravek Biochemicals Inc., Brea, CA, USA) was applied to each microculture for further 18–20 h. The amount of the isotope incorporated into the parasite nucleic acid pool, corresponding to the parasite growth, was measured by liquid scintillation counting with 1450 Microbeta Plus Liquid Scintillation Counter (Wallac Oy, Turku, Finland). The cpms of host cells alone (below 250/microculture) were subtracted from cpms of T. gondii infected microcultures (Dzitko et al. [2014]).

[2] = tested on: human breast carcinoma MCF-7 cells; test: In vitro antiproliferative assay (SRB), MCF-7; format: cell-based; details: 72 h exposure, mean ± SD
Procedure: (§1) Biphenotypic B myelomonocytic leukemia MV4-11, human lung carcinoma A549, human breast carcinoma MCF-7, and normal mouse fibroblast BALB/3T3 cells were obtained from American Type Culture Collection (Rockville, Maryland, USA). All the cell lines are being maintained at the Institute of Immunology and Experimental Therapy, Wroclaw, Poland. MV4-11 cells were cultured in RPMI 1640 medium (Gibco, UK) with 2 mM L-glutamine adjusted to contain 1.0 mM sodium pyruvate, and 10% fetal bovine serum (FBS) (all from Sigma-Aldrich, Germany). A549 cells were cultured in RPMI 1640+ Opti-MEM (1:1) (both from Gibco, UK), MCF-7 cells in Eagle medium (IIET, Wroclaw, Poland), BALB/3T3 in Dulbecco medium (IIET, Poland) supplemented with 2 mM L-glutamine and 1.0 mM sodium pyruvate, 10% fetal bovine serum (all from Sigma-Aldrich, Germany). The MCF-7 cell culture was supplemented with 0.8 mg/l of insulin (Sigma-Aldrich, Germany). All culture media were supplemented with 100 units/ml penicillin, and 100 µg/ml streptomycin (both from Polfa Tarchomin S.A., Poland). All cell lines were grown at 37 °C with 5% CO2 humidified atmosphere (Łączkowski et al. [2014], [2016a]). Prior to usage, the compounds were dissolved in DMSO and culture medium (1: 9) to the concentration of 1 mg/ml, and subsequently diluted in culture medium to reach the required concentrations (0.1, 1, 10, and 100 µg/ml) (Łączkowski et al. [2014], [2016a]). Twenty-four hours prior to the addition of the tested compounds, the cells counted using Burker hemocytometer were plated in 96-well plates (Sarstedt, Germany) at a density of 1 × 10^4 cells per well. The assay was performed after 72 h of exposure to varying concentrations of the tested agents. The in vitro cytotoxic effect of all agents was examined using the SRB assay for adherent cells (A549, MCF-7, and BALB/3T3) or MTT assay for leukemia cells (MV4-11) as described previously. […] Each compound in each concentration was tested in triplicate in a single experiment, which was repeated 3–7 times (Rubinstein et al. [1990]; Bramson et al. [1995]). Cells were attached to the bottom of plastic wells by fixing them with cold 50% TCA (trichloroacetic acid, POCH, Gliwice, Poland) on top of the culture medium in each well. The plates were incubated at 4 °C for 1 h and then washed five times with tap water. The cellular material fixed with TCA was stained with 0.1% sulforhodamine B (SRB, Sigma-Aldrich, Germany) and dissolved in 1% acetic acid (POCH, Gliwice, Poland) for 30 min. Unbound dye was removed by rinsing (4×) in 1% acetic acid. The protein-bound dye was extracted with 10 mM unbuffered Tris base (Sigma-Aldrich, Germany) for determination of the optical density (λ = 540 nm) in a computer-interfaced, 96-well Synergy H4 (BioTek Instruments USA) photometer microtiter plate reader (Sidoryk et al. [2012]).

[3] = tested on: normal mouse fibroblast Balb/3T3 cells; test: In vitro cytotoxicity (SRB), Balb/3T3; format: cell-based; details: 72 h exposure, mean ± SD
Procedure: as §1

[4] = tested on: human lung carcinoma A549 cells; test: In vitro antiproliferative assay (SRB), A549; format: cell-based; details: 72 h exposure, mean ± SD
Procedure: as §1

[5] = tested on: biphenotypic B myelomonocytic leukemia MV4-11 cells; test: In vitro antiproliferative assay (MTT), MV4-11; format: cell-based, human; details: 72 h exposure, mean ± SD
Procedure: Biphenotypic B myelomonocytic leukemia MV4-11, human lung carcinoma A549, human breast carcinoma MCF-7, and normal mouse fibroblast BALB/3T3 cells were obtained from American Type Culture Collection (Rockville, Maryland, USA). All the cell lines are being maintained at the Institute of Immunology and Experimental Therapy, Wroclaw, Poland. MV4-11 cells were cultured in RPMI 1640 medium (Gibco, UK) with 2 mM L-glutamine adjusted to contain 1.0 mM sodium pyruvate, and 10% fetal bovine serum (FBS) (all from Sigma-Aldrich, Germany). A549 cells were cultured in RPMI 1640+ Opti-MEM (1:1) (both from Gibco, UK), MCF-7 cells in Eagle medium (IIET, Wroclaw, Poland), BALB/3T3 in Dulbecco medium (IIET, Poland) supplemented with 2 mM L-glutamine and 1.0 mM sodium pyruvate, 10% fetal bovine serum (all from Sigma-Aldrich, Germany). The MCF-7 cell culture was supplemented with 0.8 mg/l of insulin (Sigma-Aldrich, Germany). All culture media were supplemented with 100 units/ml penicillin, and 100 µg/ml streptomycin (both from Polfa Tarchomin S.A., Poland). All cell lines were grown at 37 °C with 5% CO2 humidified atmosphere (Łączkowski et al. [2014], [2016a]).
Prior to usage, the compounds were dissolved in DMSO and culture medium (1: 9) to the concentration of 1 mg/ml, and subsequently diluted in culture medium to reach the required concentrations (0.1, 1, 10, and 100 µg/ml) (Łączkowski et al. [2014], [2016a]).
Twenty-four hours prior to the addition of the tested compounds, the cells counted using Burker hemocytometer were plated in 96-well plates (Sarstedt, Germany) at a density of 1 × 10^4 cells per well. The assay was performed after 72 h of exposure to varying concentrations of the tested agents. The in vitro cytotoxic effect of all agents was examined using the SRB assay for adherent cells (A549, MCF-7, and BALB/3T3) or MTT assay for leukemia cells (MV4-11) as described previously. The results were calculated as an inhibitory concentration 50 (IC50)—the concentration of tested agent which inhibits proliferation of 50% of the cancer cell population. Each compound in each concentration was tested in triplicate in a single experiment, which was repeated 3–7 times (Rubinstein et al. [1990]; Bramson et al. [1995]).
Twenty microliter of MTT solution (MTT: 3-(4,5-dimethylthiazol-2-yl)-2,5-diphenyltetrazolium bromide, stock solution: 5 mg/ml) was added to each well and incubated for 4 h. After the incubation time was complete, 80 µl of the lysis mixture was added to each well (lysis mixture: 225 ml dimethylformamide, 67.5 g sodium dodecyl sulfate and 275 ml of distilled water). The optical densities of the samples were read after 24 h on a Synergy H4 (BioTek Instruments USA) photometer microtiter plate reader at 570 nm (Sidoryk et al. [2012]). All of chemicals were obtained from Sigma-Aldrich, Germany.

`Nc1ccc(S(=O)(=O)Nc2ncccn2)cc1` [Sulfadiazine, reference compound] was tested, and the activity at 5 µg/mL ([1]; 5.00 µg/ml, VERO host cells) was 92%, the activity at 25 µg/mL ([1]; 25.00 µg/ml, VERO host cells) was 80.5% and the activity at 50 µg/mL ([1]; 50.00 µg/ml, VERO host cells) was 70.7%. It also gave an activity at 125 µg/mL ([1]; 125.00 µg/ml, VERO host cells (Table 3)) of 55.2%, an activity at 250 µg/mL ([1]; 250.00 µg/ml, VERO host cells) of 52.8% and an activity at 500 µg/mL ([1]; 500.00 µg/ml, VERO host cells) of 41.6%. The activity at 1250 µg/mL ([1]; 1250.00 µg/ml, VERO host cells) was 39.7%, the activity at 2500 µg/mL ([1]; 2500.00 µg/ml, VERO host cells) was 39.6% and the IC50 ([1]; VERO host cells, GraphPad Prism curves, read-out: IC50 (50% inhibition of T. gondii proliferation in vitro)) was 1020 µg/mL (≈ 4.09 mM).

For `N.N.[Cl][Pt][Cl]` [cis-platin, reference compound], the “IC50 MCF-7” value [2] was 2.33 ± 0.465 µg/mL, the “IC50 Balb/3T3” value [3] was 2.55 ± 0.588 µg/mL and the “IC50 A549” value [4] was 2.69 ± 1.119 µg/mL. The “IC50 MV4-11” value [5] was 0.22 ± 0.11 µg/mL.
